Test results published in PMC7181660, “A novel specific PERK activator reduces toxicity and extends survival in Huntington's disease models” (Scientific Reports, 2020).

Legend:
[1] = target: T1, PERK (EIF2AK3) (Homo sapiens, UniProt Q9NZJ5); test: In vitro HotSpot kinase assay on isolated PERK; assay type: biochemical; conditions: HotSpot Kinase Assay
T1 construct: GST; purchased Life technologies, Carlsbad, CA; host or cells: insect cells
T1 sequence (Q9NZJ5 536-1116): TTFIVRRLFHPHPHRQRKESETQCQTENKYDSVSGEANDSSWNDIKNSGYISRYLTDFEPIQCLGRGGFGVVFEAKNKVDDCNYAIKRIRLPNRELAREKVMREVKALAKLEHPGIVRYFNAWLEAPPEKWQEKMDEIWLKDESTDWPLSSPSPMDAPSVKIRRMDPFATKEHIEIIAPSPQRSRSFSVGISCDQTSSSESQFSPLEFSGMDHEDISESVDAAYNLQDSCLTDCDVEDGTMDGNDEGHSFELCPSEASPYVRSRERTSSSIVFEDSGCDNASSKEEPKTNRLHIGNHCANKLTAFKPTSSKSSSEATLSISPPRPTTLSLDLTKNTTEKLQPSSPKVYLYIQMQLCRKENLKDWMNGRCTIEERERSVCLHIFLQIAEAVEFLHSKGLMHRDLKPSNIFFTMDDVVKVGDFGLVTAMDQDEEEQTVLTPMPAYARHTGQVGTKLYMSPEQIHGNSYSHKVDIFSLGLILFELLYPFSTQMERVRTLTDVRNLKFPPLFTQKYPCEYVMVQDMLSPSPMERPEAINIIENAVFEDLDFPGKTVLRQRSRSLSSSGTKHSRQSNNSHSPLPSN
Procedure: In vitro kinase assays with purified components and full kinase panel analysis was done at Reaction Biology Corp. (Malvern, PA, USA) using the HotSpot Kinase Assay. Reactions were performed for 20 min at room temp. using ^33P-ATP (Specific activity 10 μCi/μl) with 1 μM total ATP, 20 μM substrate and kinases in the nanomolar range in 20 mM Hepes (pH 7.5), 10 mM MgCl2, 1 mM EGTA, 0.02% Brij35, 0.02 mg/ml BSA, 0.1 mM Na3VO4, 2 mM DTT, 1% DMSO and other required factors depending on the assayed kinase.

[2] = target: T2, panel of 391 kinases (Homo sapiens, UniProt P10398); test: biochemical; assay type: biochemical; conditions: ARAF; ATP 1 µM; read-out: Control Compound IC50
T2 sequence (P10398 1-606): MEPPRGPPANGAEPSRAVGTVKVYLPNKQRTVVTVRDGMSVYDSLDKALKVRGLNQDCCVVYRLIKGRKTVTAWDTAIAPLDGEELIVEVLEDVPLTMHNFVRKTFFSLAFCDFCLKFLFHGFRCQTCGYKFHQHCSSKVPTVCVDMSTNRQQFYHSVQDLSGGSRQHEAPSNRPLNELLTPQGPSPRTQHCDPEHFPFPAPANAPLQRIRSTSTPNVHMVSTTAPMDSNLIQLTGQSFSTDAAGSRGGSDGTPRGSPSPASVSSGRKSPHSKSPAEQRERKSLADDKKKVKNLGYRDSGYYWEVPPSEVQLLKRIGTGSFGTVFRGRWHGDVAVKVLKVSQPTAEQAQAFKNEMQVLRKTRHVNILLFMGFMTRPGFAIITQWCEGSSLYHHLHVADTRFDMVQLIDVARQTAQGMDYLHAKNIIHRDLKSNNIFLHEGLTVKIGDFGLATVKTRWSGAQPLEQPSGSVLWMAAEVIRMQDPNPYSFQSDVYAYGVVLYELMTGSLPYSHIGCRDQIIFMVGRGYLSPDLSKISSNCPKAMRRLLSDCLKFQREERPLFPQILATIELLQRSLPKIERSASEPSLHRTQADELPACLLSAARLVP

[3] = target: panel of 391 kinases (Homo sapiens, UniProt P68400); test: biochemical; assay type: biochemical; conditions: CK2a; ATP 1 µM; read-out: Control Compound IC50
[4] = target: panel of 391 kinases (Homo sapiens, UniProt Q15118); test: biochemical; assay type: biochemical; conditions: kinase PDK1/PDHK1; 10-dose IC50 mode; 1 µM ATP; read-out: Control Compound IC50
[5] = target: panel of 391 kinases (Homo sapiens, UniProt Q15119); test: biochemical; assay type: biochemical; conditions: kinase PDK2/PDHK2; 10-dose IC50 mode; 1 µM ATP; read-out: Control Compound IC50
[6] = target: panel of 391 kinases (Homo sapiens, UniProt Q15120); test: biochemical; assay type: biochemical; conditions: kinase PDK3/PDHK3; 10-dose IC50 mode; 1 µM ATP; read-out: Control Compound IC50
[7] = target: panel of 391 kinases (Homo sapiens, UniProt Q16654); test: biochemical; assay type: biochemical; conditions: kinase PDK4/PDKH4; 10-dose IC50 mode; 1 µM ATP; read-out: Control Compound IC50
[8] = target: T3, panel of 391 kinases (Homo sapiens, UniProt Q9NR20); test: biochemical; assay type: biochemical; conditions: DYRK4; ATP 1 µM; read-out: Control Compound IC50
T3 sequence (Q9NR20 1-520): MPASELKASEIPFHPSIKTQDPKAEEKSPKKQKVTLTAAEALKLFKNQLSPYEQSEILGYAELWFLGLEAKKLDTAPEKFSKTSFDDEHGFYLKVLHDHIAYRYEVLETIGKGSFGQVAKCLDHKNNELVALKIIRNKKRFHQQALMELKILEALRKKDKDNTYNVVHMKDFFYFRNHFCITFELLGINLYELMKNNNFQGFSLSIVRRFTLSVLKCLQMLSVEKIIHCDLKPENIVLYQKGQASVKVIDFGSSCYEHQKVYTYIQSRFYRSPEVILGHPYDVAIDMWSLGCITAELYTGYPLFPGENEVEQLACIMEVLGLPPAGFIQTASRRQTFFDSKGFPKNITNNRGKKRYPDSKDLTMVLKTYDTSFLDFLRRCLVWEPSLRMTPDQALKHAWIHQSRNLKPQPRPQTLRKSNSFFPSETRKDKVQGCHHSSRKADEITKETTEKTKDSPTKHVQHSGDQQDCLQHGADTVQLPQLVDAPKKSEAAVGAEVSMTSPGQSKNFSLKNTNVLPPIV

[9] = target: panel of 391 kinases (Homo sapiens, UniProt Q9NYL2); test: biochemical; assay type: biochemical; conditions: ZAK/MLTK; ATP 1 µM; read-out: Control Compound IC50
[10] = target: panel of 391 kinases (Homo sapiens, UniProt Q9Y572); test: biochemical; assay type: biochemical; conditions: RIPK3; ATP 1 µM; read-out: Control Compound IC50
[11] = target: panel of 391 kinases (Homo sapiens, UniProt Q8TDX7); test: biochemical; assay type: biochemical; conditions: NEK7; ATP 1 µM; read-out: Control Compound IC50
[12] = target: panel of 391 kinases (Homo sapiens, UniProt Q9HC98); test: biochemical; assay type: biochemical; conditions: NEK6; ATP 1 µM; read-out: Control Compound IC50
[13] = system: STHdh^Q111/111 cells; test: Toxicity assay: rescue from tunicamycin (ER stress)-induced apoptosis, FACS with propidium iodide (sub-G0/G1); assay type: cell-based, murine; conditions: 0–100 μM, 48 h Tun exposure (Fig. 1C)
Procedure: STHdh^Q111/111 cells (used before[13]) or PERK+/+ or PERK−/− MEFs (kindly provided by David Ron, Univ. Cambridge) were incubated with Tun (10 μg/ml) for 48 h, which results in ER stress-induced cell death. Cells under the same conditions were incubated for the same times, together with Tun, with increasing concentrations of the different PERK modulators (0–120 μM) and the percent of apoptotic cells was measured by FACS cell cycle progression using propidium iodide (PI), considering the fraction beneath G0/G1. The relative apoptosis rate was calculated to be able to compare between compounds and experiments, where for each concentration curve the percent of apoptotic cells was considered 100 at concentration 0 of the PERK modulator, with only Tun. The graphs show the average relative apoptosis rate of at least 3 independent experiments for each compound.
Cells were washed with PBS and fixed with cold methanol. Before FACS analysis cells were washed with PBS, followed by addition of propidium iodide (PI) solution (10 μg/ml) and analysis by flow cytometry. Cells in sub-G0/G1 were counted as apoptotic/ dead.

[14] = target: panel of 391 kinases (Homo sapiens, UniProt Q9BQI3); test: biochemical; assay type: biochemical; conditions: kinase EIF2AK1; 10-dose IC50 mode; 1 µM ATP; read-out: Control Compound IC50
[15] = target: panel of 391 kinases (Homo sapiens, UniProt P27361); test: biochemical; assay type: biochemical; conditions: ERK1; ATP 1 µM; read-out: Control Compound IC50
[16] = target: panel of 391 kinases (Homo sapiens, UniProt Q96QT4); test: biochemical; assay type: biochemical; conditions: kinase TRPM7/CHAK1; 10-dose IC50 mode; 1 µM ATP; read-out: Control Compound IC50

With `Cn1cc(-c2ccc3c(c2)CCN3C(=O)Cc2cccc(C(F)(F)F)c2)c2c(N)ncnc21` [GSK606414, 7-methyl-5-(1-{[3-(trifluoromethyl)phenyl]acetyl}-2,3-dihydro-1H-indol-5-yl)-7H-p yrrolo[2,3-d]pyrimidin-4-amine] the “effect on activity of isolated PERK” value [1] was “clear inhibitory effect”.
Molecule `O=C1Nc2ccc(I)cc2/C1=C/c1cc(Br)c(O)c(Br)c1` [GW5074] has an IC50 [2] of 29.3 nM, an IC50 [3] of 35 nM and an IC50 [4] of 10.3 µM. The IC50 [5] was 5.52 µM, the IC50 [6] was 1890 nM and the IC50 [7] was 1680 nM. The IC50 [8] was 1140 nM, the IC50 [9] was 1340 nM and the IC50 [10] was 1140 nM.
`O=C1Nc2ccc3ncsc3c2/C1=C/c1cnc[nH]1` [PKR Inhibitor] was tested, and the IC50 [11] was 14.8 µM and the IC50 [12] was 5.69 µM.
For `COc1cc(/C=N\N(C)c2nc(-c3ccccc3)cc(-c3ccccc3)n2)cc(OC)c1O` [MK-30], the “rescue from ER stress-induced apoptosis” value [13] was “inactive”.
For `Cn1cc(-c2ccc3c(c2)CCN3C(=O)Cc2cccc(C(F)(F)F)c2)c2c(N)ncnc21` [GSK-2606414], the IC50 [14] was 166 nM.
Molecule `O=C(Nc1ccc2[nH]nc(-c3ccncc3)c2c1)[C@@H]1CCN(CC(=O)N2CCN(c3ccc(-c4ncccn4)cc3)CC2)C1` [SCH772984] has an IC50 [15] of 12.6 nM.
With `CCCCCCCCCCCCCCCCn1cc[n+](Cc2ccccc2)c1C` [NH125] the IC50 [16] was 11 µM.
